Data from patent US4661487A (priority 1984, dated 1987).
Values joined by “and” are separate entries in the source; they are usually repeats but may differ in a detail not shown here. Equal values may be shown once. Where a name gives a salt, the structure may show the parent alone.

What was measured:
[1] = tested on: spontaneously hypertensive rats; assay: Heart rate-modifying action in spontaneously hypertensive rats; assay type: in vivo, spontaneously hypertensive rats (SHR rats)
Experimental: (§1) The substances were administered orally with a probang to fasting spontaneously hypertensive rats. The animals were fasted 17 hours before the start of the experiment. All the substances were dissolved in 1% strength carboxymethylcellulose (MH 300), and the administration volume was 10 ml/kg. The starting values of the blood pressure and heart rate were recorded directly before the administration. The action of the substance was measured 1, 2, 4, 7 and 24 hours after the administration. The measurement was performed non-invasively with a W+W Recorder 8002, it being possible to measure the systolic blood pressure and the heart rate. The animals were offered food again 4 hours after administration of the substance. The values can be seen from Table 1, page 5. […] The experiment was carried out by the same method as in Example 1, and the values can be seen in Table 2.

[2] = tested on: spontaneously hypertensive rats; assay: Hypotensive action (systolic blood pressure, W+W Recorder 8002) in spontaneously hypertensive rats; assay type: in vivo, spontaneously hypertensive rats (SHR rats)
Experimental: as §1

[3] = tested on: collagen-induced aggregation of human platelets; assay: Inhibition of collagen-induced aggregation of human platelets in vitro (method of Born, platelet-rich human plasma); assay type: cell-based
Experimental: Inhibition of the collagen-induced aggregation of human platelets by the combination of 4,5-dihydro-6-[4-(1-imidazolyl)-thien-2-yl]-5-methyl-3(2H)-pyridazinone hydrochloride (D) with lofexidine (A).
The inhibition of collagen-induced platelet aggregation in vitro was carried out by the method of Born (Nature, 194, 927-929 (1962)) on platelet-rich human plasma with 4,5-dihydro-6-[4-(1-imidazolyl)-thien-2-yl]-5-methyl-3(2H)-pyridazinone hydrochloride (D), lofexidine (A) and with mixtures of A and D.
In each case the mean value of 4 independent determinations has been given. In the investigations of the mixtures, the concentration of A was constant at 1×10^-5 mole/l.

[4] = peripheral vasodilation; cited from earlier work

CC1CC(=O)NN=C1c1ccc(-n2ccnc2)cc1 (stereo not drawn) [Substance B, 4,5-dihydro-6-[4-(1-imidazolyl)-phenyl]-5-methyl-3(2H)-pyridazinone]
Heart rate, Δ after administration of the substance ([1]; 10.0 mg/kg p.o., 1 hour): +113 ± 14 beats/minute
Heart rate, Δ after administration of the substance ([1]; 10.0 mg/kg p.o., 2 hours): +108 ± 10 beats/minute
Heart rate, Δ after administration of the substance ([1]; 10.0 mg/kg p.o., 4 hours): +85 ± 21 beats/minute
Heart rate, Δ after administration of the substance ([1]; 10.0 mg/kg p.o., 7 hours): +129 ± 24 beats/minute
Heart rate, Δ after administration of the substance ([1]; 10.0 mg/kg p.o., 24 hours): +16 ± 16 beats/minute
Systolic blood pressure, Δ after administration of the substance ([2]; 10.0 mg/kg p.o., 1 hour): -95.4 ± 3.4 mmHg
Systolic blood pressure, Δ after administration of the substance ([2]; 10.0 mg/kg p.o., 2 hours): -97.2 ± 4.6 mmHg
Systolic blood pressure, Δ after administration of the substance ([2]; 10.0 mg/kg p.o., 4 hours): -98.4 ± 5.6 mmHg
Systolic blood pressure, Δ after administration of the substance ([2]; 10.0 mg/kg p.o., 7 hours): -93.0 ± 5.6 mmHg
Systolic blood pressure, Δ after administration of the substance ([2]; 10.0 mg/kg p.o., 24 hours): -35.8 ± 6.6 mmHg

CC1CC(=O)NN=C1c1cc(-n2ccnc2)cs1 (stereo not drawn) [Substance C, 4,5-dihydro-6-[4-(1-imidazolyl)-thien-2-yl]-5-methyl-3(2H)-pyridazinone]
Heart rate, Δ after administration of the substance ([1]; 10.0 mg/kg p.o., 1 hour): +104 ± 21 beats/minute
Heart rate, Δ after administration of the substance ([1]; 10.0 mg/kg p.o., 2 hours): +91 ± 10 beats/minute
Heart rate, Δ after administration of the substance ([1]; 10.0 mg/kg p.o., 4 hours): +70 ± 12 beats/minute
Heart rate, Δ after administration of the substance ([1]; 10.0 mg/kg p.o., 7 hours): +36 ± 13 beats/minute
Systolic blood pressure, Δ after administration of the substance ([2]; 10.0 mg/kg p.o., 1 hour): -48.1 ± 16.2 mmHg
Systolic blood pressure, Δ after administration of the substance ([2]; 10.0 mg/kg p.o., 2 hours): -66.2 9.9 mmHg
Systolic blood pressure, Δ after administration of the substance ([2]; 10.0 mg/kg p.o., 4 hours): -93.9 ± 6.8 mmHg
Systolic blood pressure, Δ after administration of the substance ([2]; 10.0 mg/kg p.o., 7 hours): -98.9 ± 9.1 mmHg

CC1CC(=O)NN=C1c1cc(-n2ccnc2)cs1 (stereo not drawn) [Substance D, 4,5-dihydro-6-[4-(1-imidazolyl)-thien-2-yl]-5-methyl-3(2H)-pyridazinone hydrochloride]
IC50 ([3]; Homo sapiens, Platelet, read-out: concentration for a half-maximum inhibition (IC50) of the collagen-induced platelet aggregation): 0.046 µM

NNc1nncc2ccccc12 [hydralazine]
side effect in hypertension therapy [4]: reflex tachycardia

Nc1cc(N2CCCCC2)nc(N)[n+]1[O-] [minoxidil]
side effect in hypertension therapy [4]: reflex tachycardia

CC(Oc1c(Cl)cccc1Cl)C1=NCCN1.Cl (racemic) [Substance A, (±)-2-[1-(2,6-dichlorophenoxy)-ethyl]-1,3-diazacyclopent-2-ene hydrochloride]
% inhibition of collagen-induced platelet aggregation ([3]; A at 1 × 10^-5 mole/l, D 0, mean of 4 determinations): 3%
Heart rate, Δ after administration of the substance ([1]; 0.1 mg/kg p.o., 1 hour): +10 ± 13 beats/minute
Heart rate, Δ after administration of the substance ([1]; 0.1 mg/kg p.o., 2 hours): +37 ± 27 beats/minute
Heart rate, Δ after administration of the substance ([1]; 0.1 mg/kg p.o., 4 hours): +12 ± 12 beats/minute
Heart rate, Δ after administration of the substance ([1]; 0.1 mg/kg p.o., 7 hours): -14 ± 12 beats/minute
Heart rate, Δ after administration of the substance ([1]; 1.0 mg/kg p.o., 1 hour, hydrochloride): -22 ± 18 beats/minute and -22 ± 8 beats/minute
Heart rate, Δ after administration of the substance ([1]; 1.0 mg/kg p.o., 2 hours): -6 ± 13 beats/minute
Heart rate, Δ after administration of the substance ([1]; 1.0 mg/kg p.o., 4 hours): -2 ± 15 beats/minute
Heart rate, Δ after administration of the substance ([1]; 1.0 mg/kg p.o., 7 hours): -10 ± 16 beats/minute
Systolic blood pressure, Δ after administration of the substance ([2]; 0.1 mg/kg p.o., 1 hour): -18.8 ± 16.6 mmHg
Systolic blood pressure, Δ after administration of the substance ([2]; 0.1 mg/kg p.o., 2 hours): -4.0 ± 18.6 mmHg
Systolic blood pressure, Δ after administration of the substance ([2]; 0.1 mg/kg p.o., 4 hours): -11.8 ± 23.2 mmHg
Systolic blood pressure, Δ after administration of the substance ([2]; 0.1 mg/kg p.o., 7 hours): -10.8 ± 26.9 mmHg
Systolic blood pressure, Δ after administration of the substance ([2]; 1.0 mg/kg p.o., 1 hour): -28.4 ± 13.1 mmHg
Systolic blood pressure, Δ after administration of the substance ([2]; 1.0 mg/kg p.o., 2 hours): -22.8 ± 11.8 mmHg
Systolic blood pressure, Δ after administration of the substance ([2]; 1.0 mg/kg p.o., 4 hours): -23.6 ± 15.5 mmHg
Systolic blood pressure, Δ after administration of the substance ([2]; 1.0 mg/kg p.o., 7 hours): -22.2 ± 17.4 mmHg

NNc1nnc(NN)c2ccccc12 [dihydralazine]
side effect in hypertension therapy [4]: reflex tachycardia
